Measured values as given in patent publication US20240108740A1, “THERAPEUTIC COMPOSITIONS INCLUDING SPN10 AND USES THEREOF” (Stealth BioTherapeutics Inc., priority 2022, published 2024).
Residues, ends and D or L forms follow the SMILES beside them.

Test system: Sprague-Dawley rats
Experiment: Example 42: CCl4-induced chronic nephrotoxicity
Assay type: in vivo, rat
From the text: […]
Renal Histology: Kidneys will be fixed in 10% neutral-buffered formalin and embedded in paraffin wax for sectioning. Three-micron sections will be stained with hematoxylin-eosin (H&E) and analyzed by light microscopy by a certified pathologist.

N=C(N)NCCC[C@H](NC(=O)[C@@H](N)Cc1c[nH]c2ccccc12)C(=O)N[C@@H](Cc1c[nH]c2ccccc12)C(=O)N[C@@H](CCCCN)C(N)=O [SPN10, H-L-Trp-L-Arg-L-Trp-L-Lys-NH2] (H-WRWK-NH2)
histopathological changes (H&E) compared to untreated control animals of Group (1) (rat, in vivo): no significant histopathological changes
protection of renal tubules from CCl4 nephrotoxicity (s.c. 5 days per week, 7 weeks): protect renal tubules from CCl4 nephrotoxicity
